The values that follow come from patent US11358967B2 (Boehringer Ingelheim International GmbH, priority 2016, dated 2022).

The assay has as its target T1, RORγ (Homo sapiens, UniProt P51449).
T1 construct: expressed in transfected cells; host or cells: HEK 293 cells, transiently transfected
T1 sequence (P51449 269-508 limits assumed): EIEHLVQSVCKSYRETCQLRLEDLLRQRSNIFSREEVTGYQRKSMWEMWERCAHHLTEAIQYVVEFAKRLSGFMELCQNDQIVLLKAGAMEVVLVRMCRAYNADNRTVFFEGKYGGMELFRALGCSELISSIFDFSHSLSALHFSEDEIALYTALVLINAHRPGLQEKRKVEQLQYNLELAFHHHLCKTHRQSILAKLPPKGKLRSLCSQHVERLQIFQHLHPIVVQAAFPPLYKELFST
The assay is described as follows: Reporter Gene Assay (RGA): RORγ transactivation of a luciferase reporter in transiently transfected HEK 293 cells. The class given is cell-based. Conditions: HEK 293 cells cotransfected with pGL4.3 luc2P/GAL4UAS and pBIND Gal4DBD hRORC LBD; 20-24 h incubation; luciferase readout. The protocol:
Reporter Gene Assay (RGA)
A nuclear receptor transactivation assay is performed to quantitate the ability of test compounds to inhibit RORγ transactivation of a luciferase reporter. […] The system uses transiently transfected HEK 293 cells cotransfected with two plasmids (pGL4.3, luc2P/GAL4UAS/Hygro, and pBIND, Gal4DBD hRORC LBD1-3). The positive control is co-transiently transfected with both plasmids, and the negative control contains the pGL4.3 promoter sequence. Assays are assembled in 384 well plates where transiently transfected cells and test compound at varying concentrations are incubated for 20-24 h. The next day, assays plates are taken out and equilibrated at RT for 20-30 minutes. Bright-Glo™ Luciferase Assay System is used to detect Luciferase production. After addition of Bright GLO detection reagent, the plates are incubated at RT for 20 minutes. The plates are read on an Envision plate reader to measure luminescence signal. The RLU signal is converted to POC relative to control and blank wells.
Compound Dilution Buffer:
Bright Glo Luciferase Assay System: Promega #E2620
Thaw lysis buffer provided in kit, add 100 mL lysis buffer to substrate powder.
(Reporter assays use an easily measured gene product as a stand-in for the process of interest.)
Take `CCS(=O)(=O)c1ccc(CNc2nc3ncc(-c4c(OC)ncnc4C4CC4)nc3n([C@@H](C)C3CC3)c2=O)nc1` [Example 3]: half-maximal inhibition (IC50) was put at 149 nM.
To `CCS(=O)(=O)c1ccc(CNc2nc3ncc(-c4c(C)ncnc4C4CC4)nc3n([C@@H](C)C3CC3)c2=O)nc1` [Example 4] belongs 269 nM; to `CCS(=O)(=O)c1ccc(CNc2nc3ncc(-c4c(C)nc(N)nc4C4CC4)nc3n([C@@H](C)C3CC3)c2=O)nc1` [Example 5], 274 nM.
Turning to `CCS(=O)(=O)c1ccc(CNc2nc3ncc(-c4nccnc4C4CC4)nc3n([C@@H](C)C3CC3)c2=O)nc1` [Example 6], the IC50 amounted to 454 nM.
As to `CC[C@H](C)n1c(=O)c(NCc2ccc(S(=O)(=O)CC)cn2)nc2ncc(-c3c(OC)ncnc3C3CC3)nc21` [Example 7], the 50% inhibitory concentration (IC50) was found to be 210 nM. This IC50 lies about 2.2-fold lower than the previous one.
`CC[C@H](C)n1c(=O)c(NCc2ccc(S(=O)(=O)CC)cn2)nc2ncc(-c3c(C)ncnc3C3CC3)nc21` [Example 8] came in with an IC50 of 338 nM. Against the preceding compound, the IC50 is about 1.6-fold higher.
`CC[C@H](C)n1c(=O)c(NCc2ccc(S(C)(=O)=O)cn2)nc2ncc(-c3c(C)ncnc3C3CC3)nc21` [Example 9] had an IC50 of 1330 nM.
Regarding `CC[C@H](C)n1c(=O)c(NCc2ccc(S(=O)(=O)CC)nc2)nc2ncc(-c3c(C)ncnc3C3CC3)nc21` [Example 10], the midpoint of inhibition, the IC50, lay at 2740 nM.
The compound `CCS(=O)(=O)c1ccc(CNc2nc3nnc(-c4c(C)ncnc4C4CC4)cc3n([C@@H](C)C3CC3)c2=O)nc1` [Example 12] returned an IC50 of 2900 nM.

As usually defined, the IC50 is the midpoint of a concentration-inhibition curve. Read a low IC50 as inhibition by little substance.
